Data reported in paper PMC6720511, “Synthesis and biological evaluation of novel N-(piperazin-1-yl)alkyl-1H-dibenzo[a,c]carbazole derivatives of dehydroabietic acid as potential MEK inhibitors” (Journal of Enzyme Inhibition and Medicinal Chemistry, 2019).

Columns and labels:
HepG2 cells [1] = assay: Cell cycle analysis (PI staining, flow cytometry); type: cell-based, human; conditions: HepG2, 2 µM (as printed in text), 48 h
Method: Cell cycle distributions in HepG2 cells were determined through propidium iodide (PI) staining and analysed by flow cytometry. HepG2 cells were seeded into a six-well plate at 5 × 10^5 cell/mL and treated with different concentrations of compound 10g for 48 h. After treatment, cells were detached with 0.25% trypsin, harvested by centrifugation, washed twice with ice-cold PBS and then fixed and permeabilised with ice-cold 70% ethanol at 4 °C overnight. Ethanol was removed and the cells were washed twice with ice-cold PBS. After this, the cells were treated with 100 µL of RNase (100 µg/mL) at 37 °C for 30 min, followed by incubation with 400 µl of DNA staining solution (PI) (1 mg/mL) in the dark at 4 °C for 30 min. The samples were analyzed by a flow cytometer (Becton-Dickinson FACSCalibur, NJ, USA) and data were analysed using the FlowJo software (Becton-Dickinson & Co, Totowa, NJ, USA).

MEK1 = molecular target: T1, MEK1 (Homo sapiens, UniProt Q02750); assay: In vitro MEK1 inhibition assay (ADP-Glo kinase assay); type: biochemical; conditions: recombinant GST-MEK1, GST-ERK2, 10 µM ATP, mean value ± SD; read-out: MEK1 inhibitory activity IC50 value
T1 construct: purchased Carna Biosciences, Japan
Method: An in vitro kinase assay of MEK1 was performed using ADP-Glo kinase assay (Promega, Madison, WI, USA) according to the manufacturer’s protocol. […] Reactions were stopped by adding 5 µL of ADP-Glo reagent to each well. After incubating at 22 °C for 40 min, 10 µL of the kinase detection reagent was added and the plates were incubated for another 30 min at 22 °C in the dark. The reaction mixture was analysed by EnSpire (PerkinElmer, Waltham, MA, USA). U0126 was used as the positive control for MEK1 inhibition.

[2] = system: normal hepatocyte cell line (QSG-7701); assay: MTT cytotoxic assay on normal hepatocytes; type: cell-based, human; conditions: Homo sapiens, QSG7701, 48 h, mean value ± SD
Method: (§1) Three human hepatocarcinoma cell lines (SMMC-7721, HepG2 and Hep3B) and normal hepatocyte cell line (QSG-7701) were maintained in Dulbecco Modified Eagle Medium (DMEM) containing 4.0 mM L-Glutamine and 4500 mg/l Glucose supplemented with 10% (v/v) foetalbovine serum (FBS) and 100 unites/mL penicillin/streptomycin at 37 °C in humidified atmosphere of 5% CO2 and 95% air.
(§2) The in vitro cytotoxic activities of the carbazole derivatives of DHA were evaluated against three human hepatocarcinoma cell lines (SMMC-7721, HepG2 and Hep3B) and a normal human hepatocyte cell line (QSG-7701) via the MTT colorimetric method. Briefly, SMMC-7721, HepG2, Hep3B and QSG-7701 cells were harvested at log phase of growth and seeded in 96-well plates (100 µL/well at a density of 2 × 10^5 cells/mL). After 24 h incubation at 37 °C and 5% CO2 to allow cell attachment, cultures were exposed to various concentrations of the isolated compounds for 48 h. Finally, MTT solution (2.5 mg/mL in PBS) was added (40 µL/well). Plates were further incubated for 4 h at 37 °C, and the formazan crystals formed were dissolved by adding 150 µL/well of DMSO. Absorption at 570 nm was measured with an ELISA plate reader. […] Doxorubicin was co-assayed as positive control.

HepG2 cells [3] = assay: Lactate dehydrogenase (LDH) leakage assay; type: cell-based, human; conditions: HepG2, 5 µM, 24 h
Method: The cell membrane integrity was determined by LDH leakage assay by using a LDH assay kit (Beyotime, China). In brief, HepG2 cells were plated on 96-well plates at the density of 5 × 10^3 cells per well and allowed to attach overnight. After being incubated with compound 10g for 24 h, the supernatants were collected and centrifuged at the speed of 1000 rpm and were subjected to LDH detection as the description in the manual. The absorbance at 490 nm was measured by a Cytation 3 Cell Imaging Multi-Mode Reader (BioTek Instruments, Inc., Winooski, VT, USA).

HepG2 = assay: MTT cytotoxic assay; type: cell-based, human; conditions: Homo sapiens, HepG2, 48 h, mean value ± SD
Method: as §1, §2

SMMC-7721 = assay: MTT cytotoxic assay; type: cell-based, human; conditions: Homo sapiens, SMMC-7721, 48 h, mean value ± SD
Method: as §1, §2

Hep3B = assay: MTT cytotoxic assay; type: cell-based, human; conditions: Homo sapiens, Hep3B, 48 h, mean value ± SD
Method: as §1, §2

HepG2 cells [4] = assay: Western blot of oncosis and apoptosis markers; type: cell-based, human
Method: HepG2 cells were seeded at a density of 5 × 10^6 cells per well and attached for 8 h, and then treated with different concentrations of compound 10g for 48 h. After the treatment, the cells were harvested and washed twice with PBS. The harvested cells were lysed with radio-immunoprecipitation assay (RIPA) lysis buffer (Beyotime Biotech., Nantong, China) with 1% cocktail (Sigma-Aldrich, USA). Whole-cell protein lysates were prepared and centrifuged at 12,000 rpm for 10 min at 4 °C. The total proteins were determined using Bradford reagent (Bio-Rad Laboratories, Inc., USA). Exactly 40 µg of protein per lane was separated through sodium dodecyl sulfate-polyacrylamide gel electrophoresis and then transferred onto a polyvinylidene difluoride membrane (Millipore, Bedford, MA, USA). The membranes were incubated with each antibody and detected through immunoblot analysis. All of the antibodies were purchased from Cell signaling Technology, Inc. (Boston, MA, USA) and diluted in accordance with the manufacturer’s instruction. Proteins were visualized using a C-Digit® imaging system (LI-COR Biosciences, Lincoln, NE, USA).

[5] = Cell death inhibition assay; type: cell-based, human; conditions: human, HepG2 cells, 10g alone, 10 µM, read-out: relative cell viability of HepG2 cells
Method: Figure 6. Compound 10g induced oncosis and apoptosis of HepG2 cells. (a) PD150606 and Z-VAD-FMK partially reversed compound 10g-induced cell death. HepG2 cells were incubated with PD150606, Z-VAD-FMK or Necrostatin-1 at indicated concentration for 24 h alone or in combination with compound 10g at indicated concentration for 24 h. (b) Compound 10g induced the degradation of α-tubulin and β-actin, and activated oncosis marker calpain-1 autolysis from the 80 kDa event to 76 kDa event in western blot analysis. *, p < 0.01; **, p < 0.01; #, p < 0.01; &, p < 0.001. (c) Compound 10g induced the upregulation of apoptotic protein Bax, caspase-3, caspase-9 and plasmic cytochrome c levels, and the downregulation of antiapoptotic protein Bcl-2 level. *, p < 0.001; **, p < 0.01; #, p < 0.01; and p < 0.01.

T1 sequence (Q02750 whole entry): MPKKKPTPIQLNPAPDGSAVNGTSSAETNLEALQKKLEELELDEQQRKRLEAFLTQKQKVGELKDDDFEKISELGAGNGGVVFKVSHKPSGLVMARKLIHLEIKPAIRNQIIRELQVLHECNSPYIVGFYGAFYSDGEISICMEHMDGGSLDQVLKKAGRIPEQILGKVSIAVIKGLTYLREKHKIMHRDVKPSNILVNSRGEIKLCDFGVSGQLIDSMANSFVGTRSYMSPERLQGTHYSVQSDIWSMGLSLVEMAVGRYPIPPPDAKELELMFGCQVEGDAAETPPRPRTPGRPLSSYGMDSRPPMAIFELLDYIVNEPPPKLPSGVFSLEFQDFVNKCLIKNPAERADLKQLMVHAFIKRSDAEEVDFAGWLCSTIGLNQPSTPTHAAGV

IC50 (MEK1): 0.11 ± 0.02 µM
Structure (SMILES): CCOc1ccc2c(c1)c1c(n2CCN2CCNCC2)-c2cc(C(C)C)ccc2C2(C)CCCC(C)(C(=O)OC)C12 (stereo not shown) [Compound 10g, 2,3,4,4a,9,13c-Hexahydro-12-ethoxy-7-isopropyl-1,4a-dimethyl-9–(2-(piperazin-1-yl)ethyl)-1H-dibenzo[a,c]carbazole-1-carboxylic acid methyl ester]
G0/G1 phase cells (HepG2 cells [1]): 55.37%
percentage of cells in G2/M phase (HepG2 cells [1]): 20.09%
IC50 [2]: 12.5 ± 0.58 µM
relative LDH leakage level (HepG2 cells [3]): 93.03%
IC50 (HepG2): 0.51 ± 0.09 µM
IC50 (SMMC-7721): 1.39 ± 0.13 µM
IC50 (Hep3B): 0.73 ± 0.08 µM
level of cytochrome c, caspase-3 and caspase-9 (in words) (HepG2 cells [4]): increased dose-dependently
ratio of Bax/Bcl-2 (in words) (HepG2 cells [4]): increased significantly
calpain-1 autolysis (in words) (HepG2 cells [4]; 48 h): autolysed from 80 kDa event to 76 kDa event in a dose-dependent manner
level of α-tubulin and β-actin (in words) (HepG2 cells [4]; dose-dependent): significant decrease
viability at 24 h, 10 µM [5]: 1.22%
